{"source": "patent US20250388542A1", "about": "“ANALOGUES OF PENTAMIDINE AND USES THEREFOR” (Auransa Inc., priority 2018, published 2025)", "key": {"786-O": {"tested_on": "786-O", "assay": "CellTiter-Glo cytotoxicity, cancer cell line panel", "format": "cell-based", "conditions": "Homo sapiens, 786-0, Renal cell carcinoma", "protocol": "(§1) The objective of this study is to investigate potential cell killing effect of Compounds 1-15 on 3 cancer cell lines. 50% inhibition concentration (IC50) was determined for these compounds in various cancer cell lines using CellTiter-Glo™ luminescent cell viability assay at different compound concentrations. Each cell line (e.g., NCI-H209; NCI-H69; and SW1271) was treated with Compounds 1-15 and culture medium contains 0.2% [v/v] DMSO vehicle control. All the cells were cultured in the media supplemented with 10-20% fetal bovine serum at 37° C., 5% CO2 and 95% humidity.\n(§2) The objective of this study is to investigate the effect of Compound 1 on cytotoxicity against 61 different types of cancer cell lines. IC50 were values were obtained using CellTiter-Glo™ as described above. Each cell line shown in Table 3 was treated with Compound 1, a standard chemotherapy drug, cisplatin, as reference control and culture medium contains 0.2% [v/v] DMSO vehicle control. All cancer cell lines were cultured in media supplemented with 10-20% fetal bovine serum at 37° C., 5% CO2 and 95% humidity."}, "A549": {"tested_on": "A549", "assay": "CellTiter-Glo cytotoxicity, cancer cell line panel", "format": "cell-based", "conditions": "Homo sapiens; A549, Lung adenocarcinoma", "protocol": "as §1, §2"}, "ACHN": {"tested_on": "ACHN", "assay": "CellTiter-Glo cytotoxicity, cancer cell line panel", "format": "cell-based", "conditions": "Homo sapiens, Papillary renal cell carcinoma", "protocol": "as §1, §2"}, "Caki-1": {"tested_on": "Caki-1", "assay": "CellTiter-Glo cytotoxicity, cancer cell line panel", "format": "cell-based", "conditions": "Homo sapiens; Caki-1, Clear cell renal cell carcinoma", "protocol": "as §1, §2"}, "Caki-2": {"tested_on": "Caki-2", "assay": "CellTiter-Glo cytotoxicity, cancer cell line panel", "format": "cell-based", "conditions": "Homo sapiens; Caki-2, Papillary renal cell carcinoma", "protocol": "as §1, §2"}, "DLD-1": {"tested_on": "DLD-1", "assay": "CellTiter-Glo cytotoxicity, cancer cell line panel", "format": "cell-based", "conditions": "Homo sapiens; DLD-1, Colon adenocarcinoma", "protocol": "as §1, §2"}, "HCCC-9810": {"tested_on": "HCCC-9810", "assay": "CellTiter-Glo cytotoxicity, cancer cell line panel", "format": "cell-based", "conditions": "HCCC9810; HCCC-9810, Intrahepatic cholangiocarcinoma", "protocol": "as §1, §2"}, "HCCLM3": {"tested_on": "HCCLM3", "assay": "CellTiter-Glo cytotoxicity, cancer cell line panel", "format": "cell-based", "conditions": "Homo sapiens; HCCLM3, Hepatocellular carcinoma", "protocol": "as §1, §2"}, "HLE": {"tested_on": "HLE", "assay": "CellTiter-Glo cytotoxicity, cancer cell line panel", "format": "cell-based", "conditions": "Homo sapiens, Hepatocellular carcinoma", "protocol": "as §1, §2"}, "HUH-6 CLONE5": {"tested_on": "HUH-6 CLONE5", "assay": "CellTiter-Glo cytotoxicity, cancer cell line panel", "format": "cell-based", "conditions": "HUH-6 CLONE5, Hepatoblastoma carcinoma", "protocol": "as §1, §2"}, "Hep G2/C3A": {"tested_on": "Hep G2/C3A", "assay": "CellTiter-Glo cytotoxicity, cancer cell line panel", "format": "cell-based", "conditions": "HepG2/C3A, Hepatoblastoma carcinoma", "protocol": "as §1, §2"}, "JHH-1": {"tested_on": "JHH-1", "assay": "CellTiter-Glo cytotoxicity, cancer cell line panel", "format": "cell-based", "conditions": "JHH1; JHH-1, Hepatocellular carcinoma", "protocol": "as §1, §2"}, "JHH-6": {"tested_on": "JHH-6", "assay": "CellTiter-Glo cytotoxicity, cancer cell line panel", "format": "cell-based", "conditions": "JHH-6, Hepatocellular carcinoma", "protocol": "as §1, §2"}, "JHH-7": {"tested_on": "JHH-7", "assay": "CellTiter-Glo cytotoxicity, cancer cell line panel", "format": "cell-based", "conditions": "JHH7; JHH-7, Hepatocellular carcinoma", "protocol": "as §1, §2"}, "LNCaP clone FGC": {"tested_on": "LNCaP clone FGC", "assay": "CellTiter-Glo cytotoxicity, cancer cell line panel", "format": "cell-based", "conditions": "Homo sapiens, Prostate carcinoma", "protocol": "as §1, §2"}, "Li-7": {"tested_on": "Li-7", "assay": "CellTiter-Glo cytotoxicity, cancer cell line panel", "format": "cell-based", "conditions": "Li-7, Hepatocellular carcinoma", "protocol": "as §1, §2"}, "NCI-H460": {"tested_on": "NCI-H460", "assay": "CellTiter-Glo cytotoxicity, cancer cell line panel", "format": "cell-based", "conditions": "Homo sapiens; NCI-H460, Large cell lung carcinoma", "protocol": "as §1, §2"}, "NOZ": {"tested_on": "NOZ", "assay": "CellTiter-Glo cytotoxicity, cancer cell line panel", "format": "cell-based", "conditions": "Gallbladder carcinoma", "protocol": "as §1, §2"}, "OCUG-1": {"tested_on": "OCUG-1", "assay": "CellTiter-Glo cytotoxicity, cancer cell line panel", "format": "cell-based", "conditions": "OCUG-1, Gallbladder carcinoma", "protocol": "as §1, §2"}, "OVCAR-3": {"tested_on": "OVCAR-3", "assay": "CellTiter-Glo cytotoxicity, cancer cell line panel", "format": "cell-based", "conditions": "Homo sapiens; OVCAR-3, High grade ovarian serous adenocarcinoma", "protocol": "as §1, §2"}, "RBE": {"tested_on": "RBE", "assay": "CellTiter-Glo cytotoxicity, cancer cell line panel", "format": "cell-based", "conditions": "Intrahepatic cholangiocarcinoma", "protocol": "as §1, §2"}, "SF268": {"tested_on": "SF268", "assay": "CellTiter-Glo cytotoxicity, cancer cell line panel", "format": "cell-based", "conditions": "Homo sapiens, SF-268; SF268, Astrocytoma", "protocol": "as §1, §2"}, "SK-OV-3": {"tested_on": "SK-OV-3", "assay": "CellTiter-Glo cytotoxicity, cancer cell line panel", "format": "cell-based", "conditions": "Homo sapiens; SK-OV-3, Ovarian serous cystadenocarcinoma", "protocol": "as §1, §2"}, "SNU-368": {"tested_on": "SNU-368", "assay": "CellTiter-Glo cytotoxicity, cancer cell line panel", "format": "cell-based", "conditions": "SNU-368, Hepatocellular carcinoma", "protocol": "as §1, §2"}, "SNU-387": {"tested_on": "SNU-387", "assay": "CellTiter-Glo cytotoxicity, cancer cell line panel", "format": "cell-based", "conditions": "Homo sapiens; SNU-387, Hepatocellular carcinoma", "protocol": "as §1, §2"}, "SNU-449": {"tested_on": "SNU-449", "assay": "CellTiter-Glo cytotoxicity, cancer cell line panel", "format": "cell-based", "conditions": "Homo sapiens; SNU-449, Hepatocellular carcinoma", "protocol": "as §1, §2"}, "Saos-2": {"tested_on": "Saos-2", "assay": "CellTiter-Glo cytotoxicity, cancer cell line panel", "format": "cell-based", "conditions": "Homo sapiens; Saos-2, Osteosarcoma", "protocol": "as §1, §2"}, "U-87 MG": {"tested_on": "U-87 MG", "assay": "CellTiter-Glo cytotoxicity, cancer cell line panel", "format": "cell-based", "conditions": "Homo sapiens, Glioblastoma", "protocol": "as §1, §2"}, "UO.31": {"tested_on": "UO.31", "assay": "CellTiter-Glo cytotoxicity, cancer cell line panel", "format": "cell-based", "conditions": "Homo sapiens; UO.31, Renal cell carcinoma", "protocol": "as §1, §2"}, "[1]": {"tested_on": "COLO 205-Luc colon cancer tumor cells", "conditions": "mouse, in vivo", "procedure": "Approximately 2.0× Luciferase stably expressing colon cancer tumor cells (COLO 205-Luc) cells suspended in 30 μl of DPBS were injected into cecum wall of BALB/c nude mice.\nThe animals were assigned into groups using an Excel-based randomization software performing stratified randomization based upon their bioluminescence intensity. Treatment was initiated according to the predetermined regimen as shown in the experimental design table.\nMice were administered compound 1 at 10 mg/k daily, 20 mg/kg daily, 10 mg/kg twice daily, 20 mg/kg twice daily, or 40 mg/kg daily.\nThe major efficacy endpoint was bioluminescence (intensity values and change from baseline). The surgically inoculated mice were weighed and intraperitoneally administered luciferin at a dose of 150 mg/kg. Ten minutes after the luciferin injection, the animals were pre-anesthetized with the mixture gas of oxygen and isoflurane. When the animals were in a complete anesthetic state, the mice were moved into the imaging chamber for bioluminescence measurements with an IVIS (Lumina II) imaging system. The bioluminescence of the whole animal body, including primary and metastatic tumors, was measured and recorded once per week.\nTumor Growth Inhibition (TGI) was calculated for each group using the formula: TGI (%)=[1−(Ti−T0)/(Vi−V0)]×100; Ti is the average tumor bioluminescence value of a treatment group on a given day, T0 is the average tumor bioluminescence value of the treatment group on day 0, Vi is the average tumor bioluminescence value of the vehicle control group on the same day with Ti, and V0 is the average tumor bioluminescence value of the vehicle group on day 0.\nFor comparison among three or more groups, a one-way ANOVA was performed. When a non-significant F-statistics (a ratio of treatment variance to the error variance) was obtained, comparisons between groups were carried out with Dunnett t(2-sided). All data were analyzed using SPSS 17.0. p<0.05 is considered to be statistically significant."}}, "data": [{"smiles": "N=C(N)c1ccc(OCCCCCOc2ccc(C(=N)N)nc2)cc1", "note": "[Compound 1, 5-(5-(4-carbamimidoylphenoxy)pentyloxy)picolinimidamide]", "values": [{"measurement": "IC50", "setting": "786-O", "result": 9630, "unit": "nM"}, {"measurement": "IC50", "setting": "A549", "result": 370, "unit": "nM"}, {"measurement": "IC50", "setting": "ACHN", "result": 4640, "unit": "nM"}, {"measurement": "IC50", "setting": "Caki-1", "result": 3420, "unit": "nM"}, {"measurement": "IC50", "setting": "Caki-2", "result": 4180, "unit": "nM"}, {"measurement": "IC50", "setting": "DLD-1", "result": 3110, "unit": "nM"}, {"measurement": "IC50", "setting": "HCCC-9810", "result": 710, "unit": "nM"}, {"measurement": "IC50", "setting": "HCCLM3", "result": 12200, "unit": "nM"}, {"measurement": "IC50", "setting": "HLE", "result": 590, "unit": "nM"}, {"measurement": "IC50", "setting": "HUH-6 CLONE5", "result": 860, "unit": "nM"}, {"measurement": "IC50", "setting": "Hep G2/C3A", "result": 230, "unit": "nM"}, {"measurement": "IC50", "setting": "JHH-1", "result": 3870, "unit": "nM"}, {"measurement": "IC50", "setting": "JHH-6", "result": 380, "unit": "nM"}, {"measurement": "IC50", "setting": "JHH-7", "result": 500, "unit": "nM"}, {"measurement": "IC50", "setting": "LNCaP clone FGC", "result": 1780, "unit": "nM"}, {"measurement": "IC50", "setting": "Li-7", "result": 760, "unit": "nM"}, {"measurement": "IC50", "setting": "NCI-H460", "result": 520, "unit": "nM"}, {"measurement": "IC50", "setting": "NOZ", "result": 2540, "unit": "nM"}, {"measurement": "IC50", "setting": "OCUG-1", "result": 2890, "unit": "nM"}, {"measurement": "IC50", "setting": "OVCAR-3", "result": 1960, "unit": "nM"}, {"measurement": "IC50", "setting": "RBE", "result": 1400, "unit": "nM"}, {"measurement": "IC50", "setting": "SF268", "result": 750, "unit": "nM"}, {"measurement": "IC50", "setting": "SK-OV-3", "result": 1170, "unit": "nM"}, {"measurement": "IC50", "setting": "SNU-368", "result": 360, "unit": "nM"}, {"measurement": "IC50", "setting": "SNU-387", "result": 4000, "unit": "nM"}, {"measurement": "IC50", "setting": "SNU-449", "result": 1570, "unit": "nM"}, {"measurement": "IC50", "setting": "Saos-2", "result": 2390, "unit": "nM"}, {"measurement": "IC50", "setting": "U-87 MG", "result": 5580, "unit": "nM"}, {"measurement": "IC50", "setting": "UO.31", "result": 3470, "unit": "nM"}, {"measurement": "deaths and morbidity", "setting": "[1]", "result": "no deaths and no morbidity"}]}]}
